Assay results reported in patent publication US7927811B2, “Polypeptides having brain-localizing activity and uses thereof” (Proteus Sciences Co., Ltd., priority 2003, dated 2011).

Test system: mouse brain tissues (cerebral parenchyma)
Assay: Brain-localizing peptide conjugates bound to gold colloids administered to mice; transmission electron microscopy of brain tissue sections
Assay type: in vivo
Details: biotin-conjugated peptide + avidin-gold particles administered to mice; electron micrographs, hippocampal pyramidal cells and cerebellar Purkinje cell region
Source text: The present inventors produced brain-localizing peptide conjugates. The conjugates are molecules that can have a cyclic structure due to the formation of a disulfide bond between cysteine residues in a peptide molecule of the present invention, and may also have biotin attached to them. The conjugates have affinity to avidin compounds.
The conjugates were bound to gold colloids and administered to mice, and the mice were subjected to experiments that evaluate the brain-localizing activity of the peptides of the present invention (observation of brain tissue sections under a transmission electron microscope).
[Section Preparation] • (i) trimming • (ii) preparation of thick sections (2 to 3 μm thick) using a glass knife • (iii) preparation of ultra-thin sections (50 to 100 nm thick) using a diamond knife • (iv) electron staining: 2% uranium acetate and then 1% lead citrate (3 minutes each) • (v) transmission electron microscope observation (acceleration voltage of 80 kV)
In the present experiment, T2J002 (SEQ ID NO: 2) and T2J004 (SEQ ID NO: 4) were used as peptides of the present invention. The arrows show positions of the gold particle-bound peptide molecules of the present invention. […] More specifically, the peptides of the present invention were confirmed to have brain-localizing activity.

| Sequence | transport of gold colloids into the cerebral parenchyma (brain-localizing activity) |
| --- | --- |
| CSLNTRSQC [T2J002] | successfully transport the gold colloids into the cerebral parenchyma |
| CVVRHLQQC [T2J004] | successfully transport the gold colloids into the cerebral parenchyma |
